Data from patent US20130071482A1, “BLOCK COPOLYMER CROSS-LINKED NANOASSEMBLIES AS MODULAR DELIVERY VEHICLES” (THE UNIVERSITY OF KENTUCKY RESEARCH FOUNDATION, priority 2011, published 2013).

Legend:
[1] = Drug release experiment (dialysis of DOX-loaded particles, sink condition); format: physicochemical; details: 37° C., from AUC of release-time curve, normalized to initial drug loading (100%)
Method: Proton nuclear magnetic resonance (^1H-NMR, Varian, 400 MHz) measurements were used to determine the compositions of block copolymers and nanoassemblies in DMSO-d6 and D2O, respectively. The number average molecular weights (Mn) of block copolymers and nanoassemblies were calculated by gel permeation chromatography (GPC, Shimadzu LC20, Japan) equipped with RI and UV detectors, using PEG standard and a phosphate buffered saline (PBS, 1×) mobile phase. Particle sizes of nanoassemblies were determined by dynamic light scattering (DLS, Zetasizer Nano 90, Malvern, UK) measurements at a 173° fixed angle. All samples were prepared in aqueous solutions at 2 mg/mL and filtered through 0.22 μm filters prior to GPC and DLS analyses. DOX loading and release were quantified using ultraviolet-visible spectrophotometry spectroscopy (UV-Vis, absorbance at 480 nm, SpectraMax M5, Molecular Devices, USA).
All particles entrapping DOX were dissolved in deionized water (0.5 mg/mL), and transferred to six dialysis cassettes (MWCO 10 kDa). […] Drug release patterns were monitored under the sink condition as the volume of dialysis medium was maintained 3,000 times greater (5 L) than the volume of the sample solution in the dialysis cassettes (1.65 mL/cassette, n=3). […] DOX remaining in each dialysis cassette was measured at 0, 1, 3, 6, 10, 24, 34, and 48 h. […]

[2] = system: human non-small cell lung cancer A549 cell line; test: Cytotoxicity assay (resazurin cell viability); format: cell-based; details: A549 cells
Method: A human non-small cell lung cancer A549 cell line was used to determine the cytotoxicity of empty nanoassemblies, DOX-loaded nanoassemblies, and free DOX. Cells were seeded in a 96-well plate (5,000 cells/well) in 100 μL F12K cell culture medium containing 10% FBS. After 24 hours, serial dilutions of the samples were added to the cell plate. Cells were then incubated at 37° C., 5% CO2, for 72 hours, followed by cell viability measurement using a resazurin assay that indicates mitochondrial metabolic activity in live cells. Resazurin solution in PBS (10 μL, 1 mM) was added to the sample-treated cells at the end of the 72-hour treatment period. Three hours later, the fluorescence of resorufin, metabolited resazurin, was measured at 560 nm (excitation)/590 nm (emission). The half maximal inhibitory concentration (IC50) was calculated with Prism software (GraphPad, USA).

COc1cccc2c1C(=O)c1c(O)c3c(c(O)c1C2=O)C[C@@](O)(C(=O)CO)C[C@@H]3O[C@H]1C[C@H](N)[C@H](O)[C@H](C)O1.Cl [Free DOX, doxorubicin hydrochloride]
Accumulated drug release at pH 5.0 in 48 h ([1]; pH 5.0, 48 h): 100% | Accumulated drug release at pH 7.4 in 48 h ([1]; pH 7.4, 48 h): 100% | IC50 ([2]; 72 hours incubation, resazurin assay, DOX equivalent): 0.53 ± 0.2 µM | Relative cytotoxicity ([2]; IC50 relative to free DOX (fold)): 1.00
